Reference: ChEMBL document CHEMBL4732190, “Identification of Potent and Long-Acting Single-Chain Peptide Mimetics of Human Relaxin-2 for Cardiovascular Diseases” (J Med Chem, 2021)

How the values were obtained:
Relaxin receptor 1 [1] = molecular target: T1, Relaxin receptor 1 (Homo sapiens, UniProt Q9HBX9); assay: Displacement of Eu3+-labelled H2 relaxin from human RXFP1 expressed in human HEK-293T cells in presence of 10 % FCS by competition binding assay; format: cell-based
T1 sequence (Q9HBX9 whole entry): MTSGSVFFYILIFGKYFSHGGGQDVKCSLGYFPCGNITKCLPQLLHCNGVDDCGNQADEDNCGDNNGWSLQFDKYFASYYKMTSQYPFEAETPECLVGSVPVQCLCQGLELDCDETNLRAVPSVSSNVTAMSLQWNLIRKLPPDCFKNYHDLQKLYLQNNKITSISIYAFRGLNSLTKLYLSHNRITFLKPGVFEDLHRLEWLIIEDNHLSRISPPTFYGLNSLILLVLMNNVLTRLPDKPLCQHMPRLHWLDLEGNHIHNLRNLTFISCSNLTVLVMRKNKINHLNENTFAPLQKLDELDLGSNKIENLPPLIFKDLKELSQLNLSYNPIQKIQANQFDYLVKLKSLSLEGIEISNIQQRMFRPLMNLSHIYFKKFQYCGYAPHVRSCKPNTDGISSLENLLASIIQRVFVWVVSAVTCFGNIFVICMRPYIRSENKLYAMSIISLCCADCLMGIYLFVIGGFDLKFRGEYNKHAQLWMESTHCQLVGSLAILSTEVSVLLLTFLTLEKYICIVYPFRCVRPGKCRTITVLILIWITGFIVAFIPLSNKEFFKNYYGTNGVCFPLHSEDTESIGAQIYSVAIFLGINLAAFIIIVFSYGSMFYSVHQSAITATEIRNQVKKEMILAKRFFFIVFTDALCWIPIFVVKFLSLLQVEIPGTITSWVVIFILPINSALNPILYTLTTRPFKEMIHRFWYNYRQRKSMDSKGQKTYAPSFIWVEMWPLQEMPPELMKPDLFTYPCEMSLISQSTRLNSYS

[2] = molecular target: T2, Relaxin receptor 1 (Rattus norvegicus) (UniProt Q6R6I6); assay: Agonist activity at rat RXFP1 expressed in human […] cells assessed as increase in IBMX-induced cAMP accumulation pretreated with IBMX for 40 mins followed by compound addition and measured after 30 mins by HTRF assay relative to control; format: cell-based; settings: HEK293, filed as agonist
T2 sequence (whole entry): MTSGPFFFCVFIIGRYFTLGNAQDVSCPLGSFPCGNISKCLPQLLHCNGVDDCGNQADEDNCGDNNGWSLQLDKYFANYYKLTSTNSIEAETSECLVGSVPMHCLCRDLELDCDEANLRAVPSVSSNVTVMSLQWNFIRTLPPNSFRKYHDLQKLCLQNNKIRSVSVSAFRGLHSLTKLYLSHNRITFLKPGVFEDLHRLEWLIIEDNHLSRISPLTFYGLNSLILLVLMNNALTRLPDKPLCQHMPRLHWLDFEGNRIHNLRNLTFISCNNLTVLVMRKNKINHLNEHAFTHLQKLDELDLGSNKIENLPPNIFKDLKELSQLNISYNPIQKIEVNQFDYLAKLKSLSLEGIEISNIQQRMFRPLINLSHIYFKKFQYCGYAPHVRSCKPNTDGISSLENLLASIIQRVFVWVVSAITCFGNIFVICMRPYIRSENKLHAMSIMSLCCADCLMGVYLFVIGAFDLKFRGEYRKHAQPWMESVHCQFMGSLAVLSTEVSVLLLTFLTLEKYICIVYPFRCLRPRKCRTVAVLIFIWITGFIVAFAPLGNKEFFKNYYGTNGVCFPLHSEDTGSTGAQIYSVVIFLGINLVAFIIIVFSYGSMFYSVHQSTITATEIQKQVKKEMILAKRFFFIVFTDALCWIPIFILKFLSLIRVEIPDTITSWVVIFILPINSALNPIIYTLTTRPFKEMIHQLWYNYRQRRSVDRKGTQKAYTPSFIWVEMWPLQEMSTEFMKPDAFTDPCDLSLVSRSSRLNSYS

Relaxin receptor 1 [3] = molecular target: T1, Relaxin receptor 1; assay: Agonist activity at human RXFP1 expressed in human HEK-293T cells co-transfected with pCRE beta-galactosidase reporter plasmid assessed as […] of IBMX-induced cAMP accumulation incubated for 30 mins by HTRF assay; format: functional, cell-based
[4] = molecular target: T3, Relaxin receptor 1 (Homo sapiens) (UniProt Q9HBX9); assay: Agonist activity at RXFP1 endogenously expressed in human OVCAR-5 cells assessed as increase in IBMX-induced cAMP accumulation pretreated with IBMX for 40 mins followed by compound addition and measured after 30 mins by HTRF assay relative to relaxin; format: functional, cell-based; settings: filed as agonist
T3 sequence (whole entry): T1 sequence (Q9HBX9 whole entry)

[5] = Positive chronotropic activity in pithed Sprague-Dawley rat assessed as increase in heart rate at 10 microg/kg, iv administered as bolus dose recorded over 60 mins relative to control; format: ADME, organism-based; settings: in vivo, 0.01 mg/kg, 1 h, dose 10 µg/kg
Relaxin receptor 1 [6] = molecular target: T1, Relaxin receptor 1; assay: Agonist activity at RXFP1 endogenously expressed in human OVCAR-5 cells assessed as increase in IBMX-induced cAMP accumulation pretreated with IBMX for 40 mins followed by compound addition and measured after 30 mins by HTRF assay; format: functional, cell-based
[7] = Half life in Sprague-Dawley rat at 1 mg/kg, iv measured upto 72 hrs by LC-HRMS analysis; format: ADME, organism-based; settings: in vivo
Relaxin receptor 1 [8] = molecular target: T4, Relaxin receptor 1 (Rattus norvegicus, UniProt Q6R6I6); assay: Agonist activity at rat RXFP1 expressed in human […] cells assessed as increase in IBMX-induced cAMP accumulation pretreated with IBMX for 40 mins followed by compound addition and measured after 30 mins by HTRF assay; format: cell-based, HEK293
T4 sequence (Q6R6I6 whole entry): T2 sequence (whole entry)

CC[C@H](C)[C@@H]1NC(=O)[C@H](C)NC(=O)[C@H]([C@@H](C)CC)NC(=O)[C@H](CCC(N)=O)NC(=O)[C@H](C)NC(=O)[C@H](CCCNC(=N)N)NC(=O)[C@H](C(C)C)NC(=O)[C@H](CC(C)C)NC(=O)[C@H](CCC(=O)O)NC(=O)[C@H](CCCNC(=N)N)NC(=O)CNC(=O)[C@@H](NC(=O)[C@H](CC(C)C)NC(=O)[C@H](CCCCN)NC(=O)[C@@H](NC(=O)[C@@H](NC(=O)[C@H](CCC(=O)O)NC(=O)[C@H](CCC(=O)O)NC(=O)[C@H](CCSC)NC(=O)[C@H](Cc2c[nH]c3ccccc23)NC(=O)[C@H](CO)NC(=O)[C@@H](N)CC(=O)O)C(C)C)[C@@H](C)CC)CSSC[C@@H]2NC(=O)[C@@H](NC(=O)[C@H](CCCCN)NC(=O)[C@H](CC(N)=O)NC(=O)[C@H](C)NC(=O)[C@H](CC(C)C)NC(=O)[C@H](C)NC(=O)[C@H](CO)NC(=O)[C@H](Cc3ccc(O)cc3)NC(=O)[C@@H](N)CC(C)C)CSCCSC[C@H](NC(=O)CNC(=O)[C@H](C(C)C)NC(=O)[C@H](Cc3cnc[nH]3)NC2=O)C(=O)N[C@@H]([C@@H](C)O)C(=O)N[C@@H](CCCCN)C(=O)N[C@@H](CCCNC(=N)N)C(=O)N[C@@H](CO)C(=O)N[C@@H](CC(C)C)C(=O)N[C@@H](C)C(=O)N[C@@H](CCCNC(=N)N)C(=O)N[C@@H](Cc2ccccc2)C(=O)NC(C(=O)O)CSSC[C@@H](C(=O)NCC(=O)N[C@@H](CCSC)C(=O)N[C@@H](CO)C(=O)N[C@H](C(=O)N[C@@H](Cc2c[nH]c3ccccc23)C(=O)N[C@@H](CO)C(=O)O)[C@@H](C)O)NC1=O (stereo partly drawn)
Ki (Relaxin receptor 1 [1]): 1.1 nM
Emax [2]: 100%
EC50 (Relaxin receptor 1 [3]): 0.0324 nM
Emax [4]: 100%
Activity [5]: 60%
EC50 (Relaxin receptor 1 [6]): 0.42 nM
half-life [7]: 27.6 min
EC50 (Relaxin receptor 1 [8]): 0.5 nM
